Activity calls are given as the source filed them.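 How the source made its calls: active means fitted curve reaches a 40% rise in fluorescent cells at or below the top valid dose; inactive means opposite-direction effect, or the rest.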
Test: compound fluorescence in GFP channel, mTEFS cells – imaging, mTEFS fibroblasts, cherry-pick, artefact control for X-chromosome reactivation project, dose response (AID 743396);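 further: raw share of Hoechst-counted cells scored GFP positive without control normalization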
Settings: mTEFS fibroblasts autofluorescence, GFP-channel imaging, 3 days; at 19.5 µM (top of the series)
In the case of `C[n+]1c(-c2ccccc2)c2cc(N)ccc2c2ccc(N)cc21`, the % fluorescent cells increase is reported as 0.212% (inactive).
With `C=CCn1c(O)c(C(C)=NCc2ccc3c(c2)OCO3)c(=O)[nH]c1=O` the % fluorescent cells increase was 0.135% (inactive).
For `O=C(c1cccc2ccccc12)C1CCCN(Cc2ccon2)C1` (stereo not given), the % fluorescent cells increase was 0% (inactive).

Same assay, conditions: mTEFS fibroblasts autofluorescence, GFP-channel imaging, 3 days; at 19.5 µM (top of the series); cells pretreated with 5-aza-dC
For `Oc1ccc(Cl)cc1C=Nc1ccc2c3c(cccc13)CC2`, the % fluorescent cells increase was 0.216% (inactive).
In the case of `Cc1cc(NC(=O)c2ccccc2)n(-c2nc3ccccc3[nH]2)n1`, the % fluorescent cells increase is reported as 0.023% (inactive).
In the case of `COc1ccc(OCCN2CCC(C(=O)NC(c3ccc(C)cc3)c3ccccn3)CC2)cc1` (stereo not given), the % fluorescent cells increase is reported as 0.021% (inactive).
With `O=C(NCCO)/C(=C/c1ccco1)NC(=O)c1ccco1` the % fluorescent cells increase was 0.007% (inactive).
With `Cc1cc(N)ncc1[N+](=O)[O-]` the % fluorescent cells increase was 0.218% (inactive).
With `Cn1cc(C(=O)N/N=C/C(Br)=C/c2ccccc2)ccc1=O` the % fluorescent cells increase was 0% (inactive).
In the case of `Nc1c(-c2ccccc2)c(CN2CCOCC2)nn1-c1ccc(C(=O)O)cc1`, the % fluorescent cells increase is reported as 0% (inactive).
For `CCOC(=O)N1CCN(Cc2cc(Cl)c3cccnc3c2O)CC1`, the % fluorescent cells increase was 0% (inactive).
For `CC1CC(C)CN(C(=O)C(C)N2CCN(S(=O)(=O)c3ccccc3F)CC2)C1` (stereo not given), the % fluorescent cells increase was 0.338% (inactive).
With `COc1ccc(C2C(=O)c3ccccc3C2=Nc2ccc(Br)cc2)cc1` (stereo not given) the % fluorescent cells increase was 0.033% (inactive).
For `COC(=O)c1cnn(-c2ccccc2)c1N`, the % fluorescent cells increase was 0.008% (inactive).
In the case of `COc1ccc2c3c(n(C)c2c1)[C@H](CO)N(Cc1ccccc1F)CC31CCN(CC2CC2)CC1`, the % fluorescent cells increase is reported as -0.126% (inactive).
With `CC(C)(C)[S@@](=O)N1Cc2cc(C(=O)N3CCCCC3)nc(-c3cccc(-c4cccc(C#N)c4)c3)c2[C@H]1CCO` the % fluorescent cells increase was 0.101% (inactive).
For `S=C(SSC(=S)N1CCOCC1)N1CCOCC1`, the % fluorescent cells increase was 0% (inactive).
In the case of `Cc1cc(NC(=O)CSc2nnc(-c3c[nH]c4ccccc34)n2-c2ccc(F)cc2)no1`, the % fluorescent cells increase is reported as 0.026% (inactive).
For `CC1CCN(C(=O)Cn2nnc(-c3ccccc3)n2)CC1`, the % fluorescent cells increase was 0.009% (inactive).
In the case of `O=C(COC(=O)/C=C/c1cccc(C(F)(F)F)c1)NC(=O)NCc1ccco1`, the % fluorescent cells increase is reported as 0.351% (inactive).
In the case of `O=C(c1cnccn1)N1CC(=O)N2[C@H](CO)[C@@H](c3ccc(-c4cccc(F)c4)cc3)[C@@H]2C1`, the % fluorescent cells increase is reported as -0.166% (inactive).
With `O=[N+]([O-])c1ccc(/C=N/NC(=S)Nc2ccc(Cl)cc2Cl)s1` the % fluorescent cells increase was 0.614% (inactive).
With `CN(Cc1cccs1)C(=O)Cc1c[nH]c2ccccc12` the % fluorescent cells increase was 0.005% (inactive).
With `CC(O)(c1ccccc1)c1nc(-c2ccncc2)cs1` (stereo not given) the % fluorescent cells increase was 0.38% (inactive).
In the case of `CC(C)(C)NC(=O)C(c1c[nH]c2ccccc12)N(C(=O)Cn1nnc(-c2ccc(Cl)cc2)n1)c1ccccc1F` (stereo not given), the % fluorescent cells increase is reported as 0.176% (inactive).
For `Nc1cc2c3c(cccc3c1)C(=O)N(CCN1CCCC1)C2=O`, the % fluorescent cells increase was -0.003% (inactive).
With `CC(C)(C)C1CCNC(=O)CC1` (stereo not given) the % fluorescent cells increase was -0.007% (inactive).
For `Cc1ccc(C(=O)c2oc3ccccc3c2NC(=O)c2cc(-c3ccccc3O)n[nH]2)cc1`, the % fluorescent cells increase was 9.74% (inactive).
For `Cc1ccc(OCCN2CCN(CC(O)Cn3c4ccccc4c4ccccc43)CC2)cc1` (stereo not given), the % fluorescent cells increase was 3.56% (inactive).
For `Cc1ccc(N2C(=O)C3C4C=CC(CNC(=S)N5CCN(c6ccccc6)CC5)(O4)C3C2=O)cc1` (stereo not given), the % fluorescent cells increase was 1.71% (inactive).
In the case of `O=[N+]([O-])c1c(Nc2ccc(O)cc2)cc(Cl)c2nonc12`, the % fluorescent cells increase is reported as -0.006% (inactive).
For `CCOc1ccc(N2C(=O)CC(Sc3nc(O)c(CC)c(=O)[nH]3)C2=O)cc1` (stereo not given), the % fluorescent cells increase was -0.007% (inactive).
For `O=C(Nc1cccc(S(=O)(=O)NC2=NCCC2)c1)C1CC(=O)N(c2ccc3c(c2)OCCO3)C1` (stereo not given), the % fluorescent cells increase was -0.007% (inactive).
For `Cc1cccc(-c2ccc([C@@H]3[C@@H](CO)N4CCCCN(S(=O)(=O)c5ccccc5F)C[C@H]34)cc2)c1`, the % fluorescent cells increase was 8.13% (inactive).
In the case of `CC(=O)Nc1ccc(N2Cc3ccccc3C2)cc1`, the % fluorescent cells increase is reported as 0.093% (inactive).
For `Cc1ccc(NC(=O)c2cc(N3C(=O)C=CC3=O)ccc2N2CCOCC2)cc1Cl`, the % fluorescent cells increase was -0.004% (inactive).
For `O=C(O)c1ccccc1NS(=O)(=O)c1ccc(N/N=C/c2cccc(O)c2O)c([N+](=O)[O-])c1`, the % fluorescent cells increase was 12.8% (inactive).
For `CC1CCCC(NC(=O)CSc2cccc[n+]2[O-])C1C` (stereo not given), the % fluorescent cells increase was 0.029% (inactive).
In the case of `Oc1ccc(Br)cc1C=Nc1ccc2c3c(cccc13)CC2`, the % fluorescent cells increase is reported as 3.42% (inactive).
For `CCOCCCNC(=O)C(c1ccc(C)cc1)N(Cc1cccs1)C(=O)c1ccccn1` (stereo not given), the % fluorescent cells increase was 0% (inactive).
For `CCN1C(=O)C(=Cc2cccc(OC)c2Oc2ccc([N+](=O)[O-])cc2[N+](=O)[O-])SC1=S`, the % fluorescent cells increase was 1.07% (inactive).
In the case of `O=C(CC1C(=O)Nc2ccccc2N1CC(=O)N1CCCC1)Nc1ccc(Br)cc1` (stereo not given), the % fluorescent cells increase is reported as 0% (inactive).
With `COc1ccc(N=Nc2ccc(O)c(P(=O)(c3ccccc3)c3ccccc3)c2)cc1` the % fluorescent cells increase was 0% (inactive).
With `COc1ccc2c3c(n(C)c2c1)[C@@H](CO)N(C(=O)NC(C)C)CC31CN(C(C)=O)C1` the % fluorescent cells increase was -0.138% (inactive).
For `Nc1[nH]c(=O)nc(Nc2ccccc2)c1N=O`, the % fluorescent cells increase was 0% (inactive).
In the case of `COc1ccc(C(=O)Nc2ccc3oc(-c4cccc(F)c4)nc3c2)cc1OC`, the % fluorescent cells increase is reported as -0.003% (inactive).
With `c1ccc(CCNc2nc(-c3ccccn3)nc3ccccc23)cc1` the % fluorescent cells increase was 0% (inactive).
For `CCCOc1ccc(Oc2nc(-c3ccncc3)nc3ccccc23)cc1`, the % fluorescent cells increase was 0.007% (inactive).
For `CCc1ccc(NS(=O)(=O)c2cccc3nonc23)cc1`, the % fluorescent cells increase was 5.79% (inactive).
For `Cc1nn(-c2ccccc2)c2ncc(C(=O)c3cc(Cl)ccc3O)cc12`, the % fluorescent cells increase was 0% (inactive).
With `Cc1ccc(S(=O)(=O)N(C)C[C@H]2OCCCC[C@@H](C)Oc3ccc(NC(=O)Nc4c(C)noc4C)cc3C(=O)N([C@H](C)CO)C[C@@H]2C)cc1` the % fluorescent cells increase was 0.012% (inactive).
In the case of `CCOCCCn1c(=NC(C)=O)c(C#N)cc2c(=O)n3cccc(C)c3nc21`, the % fluorescent cells increase is reported as 0.498% (inactive).
For `Cc1ccc(-c2ccc3c(c2)O[C@@H](CN(C)Cc2ccncc2)[C@@H](C)CN([C@@H](C)CO)S3(=O)=O)cc1`, the % fluorescent cells increase was 0.037% (inactive).
In the case of `COc1ccc(-c2ccc3[nH]c4c(c3c2)CCN2C(=O)[C@@H]([C@H](C)O)[C@@H](N(C)C(=O)Nc3ccc(F)cc3)C[C@@H]42)cc1`, the % fluorescent cells increase is reported as 10.8% (inactive).
With `C[C@@H]1CN([C@@H](C)CO)C(=O)c2ccccc2-c2ccccc2CO[C@@H]1CN(C)C(=O)Nc1ccc2c(c1)OCO2` the % fluorescent cells increase was -0.044% (inactive).
With `CC(=O)N[C@@H](CC(=O)O)C(=O)O` the % fluorescent cells increase was 0.642% (inactive).
In the case of `CCCCn1nnnc1C(c1ccccc1)N1CCN(c2ccc(C)cc2)CC1` (stereo not given), the % fluorescent cells increase is reported as -0.003% (inactive).
With `Cc1ccc(Cn2ccsc2=NC(=O)CCl)cc1` the % fluorescent cells increase was 0% (inactive).
With `CN(C)c1ccc(NC2=C(Cl)C(=O)c3ccccc3C2=O)cc1` the % fluorescent cells increase was -0.006% (inactive).
With `CCOC(=O)Nc1ccc2nc(-c3cscn3)[nH]c2c1` the % fluorescent cells increase was 0.274% (inactive).
With `Cc1occc1C(=O)N/N=C/C(Br)=C\c1ccccc1` the % fluorescent cells increase was -0.004% (inactive).
For `COC(=O)C(C(C)C)N1CCc2c(C)nc3c(C#N)cnn3c21` (stereo not given), the % fluorescent cells increase was 0.064% (inactive).
For `O=C1N[C@H](Cc2ccccc2)COCc2cn(nn2)CC[C@@H]1Cc1ccccc1`, the % fluorescent cells increase was 0.024% (inactive).
For `COc1ccccc1/C=C/C(=O)OCC(=O)NC(=O)NC1CCCC1`, the % fluorescent cells increase was 0% (inactive).
With `Cc1ccc(Cl)cc1NC(=O)CCC(=O)O` the % fluorescent cells increase was -0.002% (inactive).
With `Cc1cc2c(NC(=O)Nc3ccc(C(C)(C)C)cc3)cccc2nn1` the % fluorescent cells increase was 0.237% (inactive).
With `Cc1ccc(S(=O)(=O)N2CCOCC2)cc1C(=O)OCC(=O)NC1CCS(=O)(=O)C1` (stereo not given) the % fluorescent cells increase was 0.086% (inactive).
In the case of `CC(OCCN(C)C)C(=O)C12CC3CC(CC(C3)C1)C2` (stereo not given), the % fluorescent cells increase is reported as 0.039% (inactive).
With `O=C1c2ccccc2C(=Cc2cccnc2)c2ccccc21` the % fluorescent cells increase was 0.125% (inactive).
With `COc1ccc(NC(=O)CCc2ccccc2)cc1S(=O)(=O)N1CCCCC1` the % fluorescent cells increase was 0.183% (inactive).
For `Cc1cccn2c(=O)c3cc(C(=O)NCc4ccc(F)cc4)c(=N)n(CCCN4CCOCC4)c3nc12`, the % fluorescent cells increase was 0% (inactive).
For `CC1Oc2ccccc2C=C1/C=N\NC(=O)c1cccnc1` (stereo not given), the % fluorescent cells increase was 0% (inactive).
With `CCOC(=O)c1sc2nc(CSc3ccccc3)[nH]c(=O)c2c1C` the % fluorescent cells increase was 0.048% (inactive).
For `CCN(CC(=O)Nc1sc2c(c1C#N)CCCC2)CC(=O)NC1CCS(=O)(=O)C1` (stereo not given), the % fluorescent cells increase was 0.225% (inactive).
With `Cc1ccc(C)c(CSC2=NN3CCCC(=O)N=C3S2)c1` the % fluorescent cells increase was -0.006% (inactive).
In the case of `CCn1nc(C)cc1-c1nnc(Sc2ncc([N+](=O)[O-])s2)n1C`, the % fluorescent cells increase is reported as 0% (inactive).
In the case of `COc1cccc(-c2ccc(C3[C@@H]4CN(C(=O)C5CCCCC5)C[C@H]3N4)cc2)c1` (stereo not given in full), the % fluorescent cells increase is reported as 0% (inactive).
In the case of `CCN(CC)CCCN=Cc1c(O)n(-c2cccc(C)c2)c(=O)c2ccccc12`, the % fluorescent cells increase is reported as -0.011% (inactive).
For `CC1=C(Cl)C2=NS(=O)(=O)CCN2C=C1Cl`, the % fluorescent cells increase was 1.51% (inactive).
With `Cc1[nH]c2ccccc2c1/C=N/Nc1nc2ccccc2[nH]1` the % fluorescent cells increase was 0% (inactive).
With `COc1ccc(C(=O)N/N=C/c2cc(Br)ccc2O)cc1OC` the % fluorescent cells increase was 4.96% (inactive).
For `CCCCC(CCC(=O)Nc1ccn(-c2ccccc2)n1)C(=O)O` (stereo not given), the % fluorescent cells increase was -0.003% (inactive).
With `COc1ccc(S(=O)(=O)N(C)C[C@H]2OCCCC[C@@H](C)Oc3ccc(NC(=O)NC(C)C)cc3C(=O)N([C@@H](C)CO)C[C@H]2C)cc1` the % fluorescent cells increase was 0.53% (inactive).
In the case of `CCN(CC)c1ccc(/C=C/C(=O)C2C(=O)C=C(C)OC2=O)cc1` (stereo not given), the % fluorescent cells increase is reported as 1.2% (inactive).
In the case of `COc1ccccc1-c1ccc(/C=N/O)o1`, the % fluorescent cells increase is reported as 0% (inactive).

Source: PubChem BioAssay AID743396 (Broad Institute, 2014)
